Measurements as given in patent publication US20040116480A1, “Oxime ether compound and agricultural or horticultural bactericide” (priority 2001, published 2004).

Tested on: kidney bean gray mold fungus (Botrytis cinerea)
Experiment: Test on kidney bean gray mold control, dipped flowers on detached leaves
Type: in vivo
Settings: 168 h, 50 ppm active ingredient, kidney bean flowers (Nagauzura) dipped, then spore solution sprayed, 20° C., 7 days, lesion diameter, read-out: control efficacy
Method: The following test examples show the efficacy of the compounds of the present invention as active ingredients of various agents for controlling plant diseases. The control efficacy was determined by visual observation of the infested states of test plants, that is, degrees of legions and growth of colonies on leaves and stalks, when they were examined, in comparison with those of control plants.
Test on Kidney Bean Gray Mold Control
Flowers of kidney bean (variety: Nagauzura) grown in a flat vessel for culturing seedlings were cut, and dipped into a solution of an emulsifiable concentrate prepared for a compound of the present invention, diluted to a concentration of 50 ppm based on the active ingredient. After the dipping, the flowers were dried at room temperature. Then a spore solution of kidney bean gray mold fungus (Botrytis cinerea) was sprayed onto the flowers. The treated flowers were placed on leaves detached from healthy kidney bean plants, placed in a temperature-controlled room at 20° C. with high humidity and repeated lighting of 12-hour intervals, and incubated for 7 days. Diameters of the legions on the leaves were measured and compared with those of the control healthy leaves to determine the control efficacy.

In the case of COc1ccnc(OC)c1CO/N=C(\C)c1cc(C)cc(C)n1 [II-14, 1-(4,6-dimethyl-2-pyridinyl)ethanone O-[(2,4-dimethoxy-3-pyridinyl)methyl]oxime], the pest or weed control at 50 ppm is reported as ≥ 75%.

COc1ncnc(OC)c1CO/N=C/c1cc(C(F)(F)F)cc(C)n1 [II-36, 6-methyl-4-trifluoromethyl-2-pyridinecarboxyaldehyde O-[(4,6-dimethoxy-5-pyrimidinyl)methyl]oxime] was tested, and the pest or weed control at 50 ppm was ≥ 75%.

For COc1nccc(C)c1CO/N=C/c1cc(C)cc(C)n1 [II-3, 4,6-dimethyl-2-pyridinecarboxyaldehyde O-[(2-methoxy-4-methyl-3-pyridinyl)methyl]oxime], the pest or weed control at 50 ppm was ≥ 75%.

For COc1ncnc(OC)c1CO/N=C(\C)c1cc(C)cc(C)n1 [II-17, 1-(4,6-dimethyl-2-pyridinyl)ethanone O-[(4,6-dimethoxy-5-pyrimidinyl)methyl]oxime], the pest or weed control at 50 ppm was ≥ 75%.

In the case of COc1ccnc(OC)c1CO/N=C/c1cc(C#N)cc(C)n1 [II-27, 4-cyano-6-methyl-2-pyridinecarboxyaldehyde O-[(2-,4-dimethoxy-3-pyridinyl)methyl]oxime], the pest or weed control at 50 ppm is reported as ≥ 75%.

COc1ncnc(OC)c1CO/N=C/c1cc(Cl)cc(C)n1 [II-20, 4-chloro-6-methyl-2-pyridinecarboxyaldehyde O-[(4,6-dimethoxy-5-pyrimidinyl)methyl]oxime] was tested, and the pest or weed control at 50 ppm was ≥ 75%.

COc1ncnc(OC)c1CO/N=C/c1cc(C#N)cc(C)n1 [II-29, 4-cyano-6-methyl-2-pyridinecarboxyaldehyde O-[(4,6-dimethoxy-5-pyrimidinyl)methyl]oxime] was tested, and the pest or weed control at 50 ppm was ≥ 75%.

With COc1nccc(C)c1CO/N=C/c1cc(C#N)cc(C)n1 [II-28, 4-cyano-6-methyl-2-pyridinecarboxyaldehyde O-[(2-methoxy-4-methyl-3-pyridinyl)methyl]oxime] the pest or weed control at 50 ppm was ≥ 75%.
